Assay results as given in ChEMBL document CHEMBL1136511, “Nonbenzamidine tetrazole derivatives as factor Xa inhibitors” (Bioorg Med Chem Lett, 2003).
pKi: −log10 of the molar value.

Experiments:
[1] = molecular target: Prothrombin (Homo sapiens, UniProt P00734); assay: Inhibitory constant against thrombin using human purified enzymes
[2] = molecular target: Serine protease 1 (Homo sapiens, UniProt P07477); assay: Inhibitory constant against trypsin using human purified enzymes
[3] = molecular target: Coagulation factor X (Homo sapiens, UniProt P00742); assay: Inhibition of human purified factor Xa
Coagulation factor X, sequence (P00742 41-179 limits assumed): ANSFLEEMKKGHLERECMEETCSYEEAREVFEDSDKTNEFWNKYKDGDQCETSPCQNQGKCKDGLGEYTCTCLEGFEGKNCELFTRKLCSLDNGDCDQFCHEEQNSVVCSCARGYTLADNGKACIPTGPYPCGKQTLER
Coagulation factor X, sequence (P00742 235-488 limits assumed): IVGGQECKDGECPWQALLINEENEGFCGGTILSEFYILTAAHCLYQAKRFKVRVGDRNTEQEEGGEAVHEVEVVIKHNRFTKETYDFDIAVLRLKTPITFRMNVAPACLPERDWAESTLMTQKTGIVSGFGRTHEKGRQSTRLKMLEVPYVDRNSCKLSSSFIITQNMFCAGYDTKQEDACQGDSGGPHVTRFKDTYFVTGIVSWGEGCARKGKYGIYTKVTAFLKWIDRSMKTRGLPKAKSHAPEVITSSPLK

[4] = Clearance after intravenous administration of 1.0 mg/kg in dog was determined; format: ADME, organism-based, Canis lupus familiaris; parameters: dose 1 mg/kg, route intravenous; settings: in vivo
[5] = Half-life period after intravenous administration of 1.0 mg/kg in dog was determined; format: ADME, organism-based, Canis lupus familiaris; parameters: dose 1 mg/kg, route intravenous; settings: in vivo
[6] = species on record: Oryctolagus cuniculus; assay: Antithrombotic efficacy in rabbit A-V shunt model was determined; format: functional
[7] = Clearance after intravenous administration of 0.5 mg/kg in dog was determined; format: ADME, organism-based, Canis lupus familiaris; parameters: dose 0.5 mg/kg, route intravenous; settings: in vivo
[8] = Clearance after peroral administration of 0.2 mg/kg in dog was determined; format: ADME, organism-based, Canis lupus familiaris; parameters: dose 0.2 mg/kg, route oral; settings: in vivo, po
[9] = Half-life period after peroral administration of 0.2 mg/kg in dog was determined; format: ADME, organism-based, Canis lupus familiaris; parameters: dose 0.2 mg/kg, route oral; settings: in vivo, po
[10] = Half-life period after intravenous administration of 0.5 mg/kg in dog was determined; format: ADME, organism-based, Canis lupus familiaris; parameters: dose 0.5 mg/kg, route intravenous; settings: in vivo

Serine protease 1, sequence (P07477 whole entry): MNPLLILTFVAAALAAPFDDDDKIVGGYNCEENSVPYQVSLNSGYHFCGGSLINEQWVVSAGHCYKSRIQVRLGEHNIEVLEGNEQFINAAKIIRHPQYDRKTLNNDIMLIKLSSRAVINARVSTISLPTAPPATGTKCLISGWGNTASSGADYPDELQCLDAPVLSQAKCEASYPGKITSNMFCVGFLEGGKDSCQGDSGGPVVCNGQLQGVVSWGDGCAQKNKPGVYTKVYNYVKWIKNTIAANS

pKi [1]	pKi [2]	pKi [3]	Structure (SMILES)	also measured
5.40	< 5.80	–	COc1ccc(-n2nnnc2C(=O)Nc2ccc(-c3ccccc3S(N)(=O)=O)cc2)cc1N	–
< 4.68	7.16	7.89	NCc1cccc(-n2nnnc2C(=O)Nc2ccc(-c3ccccc3S(N)(=O)=O)cc2)c1	–
5.92	< 5.80	8.52	Nc1cc(-n2nnnc2C(=O)Nc2ccc(C(=O)N3CCCC3)cc2F)ccc1Cl	–
< 4.68	< 5.80	8.54	Nc1noc2ccc(-n3nnnc3C(=O)Nc3ccc(C(=O)N4CCCC4)cc3F)cc12	–
5.80	< 5.80	8.27	Nc1cc(-n2nnnc2C(=O)Nc2ccc(-c3ccccc3S(N)(=O)=O)cc2)ccc1Cl	–
5.10	< 5.80	8.10	Nc1cc(-n2nnnc2C(=O)Nc2ccc(-c3ccccc3S(N)(=O)=O)cn2)ccc1Cl	–
–	–	8.92	Nc1cc(-n2nnnc2C(=O)Nc2ccc(-c3ccccc3S(N)(=O)=O)cc2F)ccc1Cl	–
–	8.19	–	N=C(N)c1cccc(-n2nnnc2C(=O)Nc2ccc(-c3ccccc3S(N)(=O)=O)cc2)c1	clearance [4]: 10.3 mL/min/kg; half-life [5]: 0.65 h; ID50 [6]: 0.13 µM/h/kg
6.22	< 5.28	9.46	Nc1noc2ccc(-n3nnnc3C(=O)Nc3ccc(-c4ccccc4S(N)(=O)=O)cc3F)cc12	clearance [7]: 5 mL/min/kg; CL/F [8]: 5 mL/min/kg; half-life [9]: 3.1 h; ID50 [6]: 5.8 µM/h/kg; half-life [10]: 3.1 h
5.80	< 5.80	8.48	Nc1cc(-n2nnnc2C(=O)Nc2ccc(-c3ccccc3S(N)(=O)=O)cc2Cl)ccc1Cl	–
5.00	< 5.80	8.10	COc1ccc(-n2nnnc2C(=O)Nc2ccc(-c3ccccc3S(N)(=O)=O)cc2)cc1	–
6.40	< 5.80	9.41	CS(=O)(=O)c1ccccc1-c1ccc(NC(=O)c2nnnn2-c2ccc3onc(N)c3c2)c(F)c1	–
5.82	< 5.80	9.01	Nc1noc2ccc(-n3nnnc3C(=O)Nc3ccc(-c4ccccc4S(N)(=O)=O)cc3)cc12	–
